This passage reports solubility in water and viability results from patent EP3565534B1, “POLYMERIC NANOPARTICLES ENCAPSULATING A COMBINATION OF NATURAL BIO-ACTIVES TRANS-RESVERATROL(RSV) AND CELASTROL(CL), A PROCESS FOR THE PREPARATION AND USE THEREOF IN THE TREATMENT OF PROSTATE CANCER” (Università degli Studi di Sassari, priority 2017, dated 2018).

Molecules are shown by their SMILES. Where two headings read alike, the source gives them in different places.

The conditions of data set [1]: cited from earlier work.
In data set [2] the test system is prostate cancer cell lines (C-42, DU-145, and PC-3 cells). The data set is described as follows: MTT assay, antiproliferative efficacy, results stated for all three cell lines together. The class given is cell-based. As to conditions: 72 hours; non-encapsulated, alone; RSV 20, 30, 40 µM; CL 0.250, 0.375, 0.5 µM. The procedure: Finally, in vitro cytotoxicity studies were performed in order to evaluate whether co-administration of encapsulated RSV and CL would have allowed an increase in the antiproliferative efficacy compared to single molecules, both as such and formulated in nanosystems, on androgen-dependent (C-42 cells) and androgen-independent (DU-145 and PC-3 cells) prostate cancer cell lines (PCa).
The antiproliferative efficacy of the NPs of the present invention was evaluated using the MTT assay (3-[4,5-dimethylthiazol-2-yl]-2,5-diphenyl tetrazolium bromide) applying the procedure described in Sanna V., et al., Resveratrol-loaded nanoparticles based on poly(epsilon-caprolactone) and poly(D,L-lactic-co-glycolic acid)-poly(ethylene glycol) blend for prostate cancer treatment. Mol. Pharm. 2013 Oct 7;10(10):3871-81, which, as a result, is included herein as a reference in its entirety.
Each experiment was repeated 3 or 5 times (n = 3 or 5).

Regarding `Oc1ccc(/C=C/c2cc(O)cc(O)c2)cc1` [RSV, trans-3,5,4'-trihydroxy-stilbene], the solubility in water in data set [1] is reported as 3 mg/100 mL. Also, the viability result in data set [2] is reported as “reduction of viability that is generally dose-dependent”.
As to `CC1=C(O)C(=O)C=C2C1=CC=C1[C@@]2(C)CC[C@@]2(C)[C@@H]3C[C@](C)(C(=O)O)CC[C@]3(C)CC[C@]12C` [CL, Celastrol], the solubility in water entry in data set [1] (result in words) is on record as “insoluble”.
